This passage reports melting point, EC50 and IC50 results from patent publication US8791118B2, “Pyridopyrazines as highly selective ras-Raf-Mek-Erk signal transduction pathway inhibitors” (Aeterna Zentaris GmbH, priority 2011, dated 2014).

Each structure is given as a SMILES string.

Series [1] has as its system Hct116. Put plainly: XTT assay for anti-proliferative effect. The class given is cell-based. The conditions noted are these: Homo sapiens, HCT-116; Hct116 tumour cell line, ~48 h incubation. The protocol: The principle of this test is based on the intracellular reduction of the tetrazolium dye XTT (sodium 3′-[1-(phenylaminocarbonyl)-3,4-tetrazolium]-bis(4-methoxy-6-nitro)benzene sulfonic acid, Sigma) to a formazan dye by mitochondrial dehydrogenases. The dye is only formed by metabolically active cells and its photometrically measurable intensity is a quantitative indicator for the presence of living cells. The reduction of dye formation by incubation of the cells with substances serves as a parameter for the anti-proliferative effect.
The tumour cell lines (ATCC) were injected into 96-well microtitre plates in a defined cell number (1250 cells/well for Hct116) and then incubated overnight in an incubator at 37° C., 5% CO2 and 95% air humidity. The test substances were prepared as stock solutions (10 mM) in DMSO. To determine the EC50 values the potential inhibitor substances were added to the cells in half-logarithmically graded dilutions, resulting in final concentrations of 1.58 nM-50 μM. The cell plates were then incubated for ˜48 h in an incubator at 37° C., 5% CO2 and 95% air humidity.
For the detection reaction the substrate XTT was mixed with PMS (N-Methyl dibenzopyrazine methylsulfate, Sigma) and added to the cells so that a final concentration of 325 μg XTT/ml and 2.5 μg PMS/ml was obtained. It was then incubated for 3 h at 37° C., 95% air humidity. The formazan salt formed by the cellular dehydrogenases could then be quantified by adsorption at 490 nm.
The % inhibition value was evaluated by means of the following formula from the values for the optical densities measured in each case at 490 nm:
Eight determinations were made for each control and two for the substance samples. The 0% control contains no cells, the 100% control (proliferation control) contains no test substance. The EC50 values were determined using GraphPadPrism.
On the technique in general: Tetrazolium dyes change colour on reduction, which living cells bring about.

Series [2] concerns the target Erk2 (Homo sapiens, UniProt P28482). Put plainly: Erk2 alpha kinase assay (cell-free, ALPHA technology). The conditions noted are these: 10 μM ATP. The class given is biochemical. The procedure: The inhibitory effect of the compounds according to the invention was tested on various serine/threonine, tyrosine and lipid kinases in enzymatic assays. Recombinant human kinases such as, for example, Erk2, were used in this case, partly as full-length kinases, partly as shortened fragments, but at least consisting of the functional kinase domains. The commercial kinase proteins (Proqinase, Upstate) were used as recombinant fusion proteins with GST (glutathion-S-transferase) or His-Tag. Depending on the type of substrate, the various kinase reactions were quantified by means of suitable ALPHA™ beads (Perkin-Elmer). The substance testing is described in detail hereinafter for the Erk assay. […] a) MAPK-ALPHAs (e.g. […] The fluorescence was detected the following morning in a Envision plate reader (Perkin-Elmer). The %-inhibition values per substance concentration were calculated by means of the following formula from the raw data determined in the Envision plate reader[…]: Eight determinations were made for each control and two for the substance samples. […] The IC50 values were determined using GraphPadPrism.

Erk2, sequence (P28482 2-360 limits assumed): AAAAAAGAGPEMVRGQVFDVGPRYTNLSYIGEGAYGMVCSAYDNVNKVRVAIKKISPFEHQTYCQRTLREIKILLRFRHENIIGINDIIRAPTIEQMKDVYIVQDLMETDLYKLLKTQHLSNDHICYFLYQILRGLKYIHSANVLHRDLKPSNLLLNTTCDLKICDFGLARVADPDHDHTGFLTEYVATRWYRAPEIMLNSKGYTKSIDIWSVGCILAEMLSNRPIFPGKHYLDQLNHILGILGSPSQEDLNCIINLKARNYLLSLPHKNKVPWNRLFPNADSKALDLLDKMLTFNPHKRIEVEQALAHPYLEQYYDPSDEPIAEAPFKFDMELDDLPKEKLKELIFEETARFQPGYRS

On to `O=C(NCCCCc1ccccc1)Nc1ccc2ncc(-c3ccc(OP(=O)(O)O)cc3)nc2n1` [Compound 165, Phosphoric acid mono-(4-{6-[3-(4-phenyl-butyl)-ureido]-pyrido[2,3-b]pyrazin-3-yl}-phenyl) ester], for which the melting point (usually the temperature, or range, at which the solid turns liquid) turned out to be 202 °C. In addition, it took 3190 nM to reach a half-maximal effect in series [1] (EC50). It took 3 nM to reach half-maximal inhibition in series [2] (IC50).
Taken in the same sequence, the figures for `CC(CCCc1ccccc1)NC(=O)Nc1ccc2ncc(-c3cnn(C)c3)nc2n1` (centres unmarked) [Compound 164, 1-(1-Methyl-4-phenyl-butyl)-3-[3-(1-methyl-1H-pyrazol-4-yl)-pyrido[2,3-b]pyrazin-6-yl]-urea] were 204 to 208 °C, 557 nM and 2 nM.
Taken in the same sequence, the figures for `Cn1cc(-c2cnc3ccc(NC(=O)NCCCCc4ccccc4)nc3n2)cn1` [Compound 155, 1-[3-(1-Methyl-1H-pyrazol-4-yl)-pyrido[2,3-b]pyrazin-6-yl]-3-(4-phenyl-butyl)-urea] were 198 to 201 °C, 337 nM and 4 nM.
Taken in the same sequence, the figures for `Cn1cc(-c2cnc3ccc(NC(=O)NCCCC(C)(C)c4ccccc4)nc3n2)cn1` [Compound 169, 1-(4-Methyl-4-phenyl-pentyl)-3-[3-(1-methyl-1H-pyrazol-4-yl)-pyrido[2,3-b]pyrazin-6-yl]-urea] were 208 to 210 °C, 563 nM and 3 nM.
With `O=C(NCCCCc1ccccc1)Nc1ccc2ncc(-c3ccc(OCCOCCO)cc3)nc2n1` [Compound 201, 1-(3-{4-[2-(2-Hydroxy-ethoxy)-ethoxy]-phenyl}-pyrido[2,3-b]pyrazin-6-yl)-3-(4-phenyl-butyl)-urea], the melting point fell in the range of 192 to 194 °C. In addition, the concentration for a half-maximal effect (EC50) (commonly the midpoint of the concentration-response curve) in series [1] was determined as 888 nM. Further, 39 nM corresponded to half-maximal inhibition in series [2] (IC50).
For `O=C(NCCCCc1ccccc1)Nc1ccc2ncc(-c3ccc(O)cc3)nc2n1` [Compound 160, 1-[3-(4-Hydroxy-phenyl)-pyrido[2,3-b]pyrazin-6-yl]-3-(4-phenyl-butyl)-urea], the melting point is 233 to 235 °C. The molecule further had an EC50 in series [1] of 420 nM. Also, 1 nM corresponded to half-maximal inhibition in series [2] (IC50).
The matching figures for `CCCn1cc(-c2cnc3ccc(NC(=O)N[C@H](C)CCCc4ccccc4)nc3n2)cn1` [Compound 170, 1-((R)-1-Methyl-4-phenyl-butyl)-3-[3-(1-propyl-1H-pyrazol-4-yl)-pyrido[2,3-b]pyrazin-6-yl]-urea]: 185 to 188 °C, 149 nM and 4 nM.
Consider `C[C@H](CCCc1ccccc1)NC(=O)Nc1ccc2ncc(-c3cnn(CCN4CCOCC4)c3)nc2n1` [Compound 168, 1-((R)-1-Methyl-4-phenyl-butyl)-3-{3-[1-(2-morpholin-4-yl-ethyl)-1H-pyrazol-4-yl]-pyrido[2,3-b]pyrazin-6-yl}-urea], for which, in series [1], the EC50 was determined as 903 nM. Besides, in series [2], inhibition was half-maximal at 3 nM (IC50).
Molecule `O=C(NCCCCc1ccccc1)Nc1ccc2ncc(-c3cn[nH]c3)nc2n1` [Compound 159, 1-(4-Phenyl-butyl)-3-[3-(1H-pyrazol-4-yl)-pyrido[2,3-b]pyrazin-6-yl]-urea] showed a melting point of 231 to 232 °C. The EC50 in series [1] amounted to 844 nM. In series [2], half-maximal inhibition (IC50) was put at 1 nM.
